Results: patent US12344606B2, “Next-generation modulators of stimulator of interferon genes (STING)” (RYVU THERAPEUTICS S.A., priority 2019, dated 2025)

Tests used:
[1] = tested on: NF-κB pathway in THP-1 dual cells; assay: THP-1 Dual reporter assay, NF-κB pathway (SEAP); type: cell-based; conditions: Homo sapiens, THP1-Dual; 18 h stimulation, absorbance; read-out: THP1 Dual EC50 (μM) NFkB
Description: (§1) Compounds of the present invention were tested for their activity using THP-1 dual cells (Invivogen, cat no. thpd-nfis) allowing for simultaneous study of NF-κB pathway and the interferon regulatory factor (IRF) pathway. THP-1 dual cells contain luciferase reporter gene under the control of an ISG54 (interferon-stimulated gene) minimal promoter in conjunction with five interferon-stimulated response elements and a secreted embryonic alkaline phosphatase reporter gene under the control an IFN (interferon)-β minimal promoter fused to five copies of the NF-κB consensus transcriptional response element with three copies of the c-Rel binding site. Following 18 h of stimulation with STING agonist, medium was collected and transferred onto fresh cell culture plate. To verify activity of the IRF pathway, luminescence activity was measured with standard laboratory plate reader immediately after addition 10 μl of the medium to 50 μl (or 40 μl) of luminescence reagent (Invivogen, cat. No. rep-qlc2). To verify activity of NF-κB pathway, 20 μl (or 10 μl) of the medium was mixed with 80 μl of a detection medium (Invivogen, cat. No. rep-qb2) and incubated for 2 hours (or 1 hour) at 37° C. in a humidified atmosphere containing 5% CO2. Next, absorbance at 630 nm (or 655 nm) was recorded using standard laboratory plate reader.

[2] = tested on: interferon regulatory factor (IRF) pathway in THP-1 dual cells; assay: THP-1 Dual reporter assay, IRF pathway (luciferase); type: cell-based; conditions: Homo sapiens, THP1-Dual; 18 h stimulation, luminescence
Description: as §1

human STING = human STING (Homo sapiens, UniProt Q86WV6); assay: Fluorescence Thermal Shift assay (hSTING FTS binding assay); conditions: STING 0.1 mg/ml, 20 min preincubation, SyproOrange
Chain of human STING (Q86WV6 whole entry H232R): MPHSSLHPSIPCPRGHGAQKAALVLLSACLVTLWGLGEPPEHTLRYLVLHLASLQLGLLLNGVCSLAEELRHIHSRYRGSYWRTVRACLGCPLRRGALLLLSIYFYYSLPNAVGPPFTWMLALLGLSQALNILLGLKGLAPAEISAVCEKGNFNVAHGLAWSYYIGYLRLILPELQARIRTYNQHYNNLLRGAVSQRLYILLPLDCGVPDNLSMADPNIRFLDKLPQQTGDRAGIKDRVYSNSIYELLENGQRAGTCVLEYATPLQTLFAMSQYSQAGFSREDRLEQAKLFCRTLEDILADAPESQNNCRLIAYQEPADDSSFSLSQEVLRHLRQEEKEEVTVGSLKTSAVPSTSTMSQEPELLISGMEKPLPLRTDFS
Description: Compounds of the present invention were tested for binding to human STING in Fluorescence Thermal Shift assay. STING was preincubated with the compounds for 20 minutes in 50 mM Hepes, 150 mM NaCl, pH 7.5 in 16 μl volume, following by adding 4 μl of SyproOrange dye dilution (ThermoFisher, cat no. S-6651). Final STING concentration was 0.1 mg/ml. Thermal unfolding was performed in Real-Time PCR QuantStudio 6 Flex System (Applied Biosystems), from 25 to 99° C., with continuous ramp mode and ramp rate 0.033° C./s. The data were analyzed using Protein Thermal Shift Software (ThermoFisher).

EC50 [1] [µM]	EC50 [2] [µM]	hSTING FTS binding assay (ΔT C.°) (human STING)	Compound
≥ 10	1 to 10	+ (ΔTm<10° C.)	Cc1cc(CN(Cc2cn(C)c3ccccc3c2=O)[C@H]2CCCN(c3ccc([N+](=O)[O-])nc3)C2)ccn1 [Example 14, 1-methyl-3-({[(2-methylpyridin-4-yl)methyl][(3S)-1-(6-nitropyridin-3-yl)piperidin-3-yl]amino}methyl)-1,4-dihydroquinolin-4-one]
1 to 10	1 to 10	+ (ΔTm<10° C.)	Cc1cc(CN(Cc2cn(C)c3ccccc3c2=O)[C@H]2CCCN(c3ccncc3Br)C2)ccn1 [Example 15, 3-({[(3S)-1-(3-bromopyridin-4-yl)piperidin-3-yl][(2-methylpyridin-4-yl)methyl]amino}methyl)-1-methyl-1,4-dihydroquinolin-4-one]
1 to 10	1 to 10	+ (ΔTm<10° C.)	Cc1cc(CN(Cc2cn(C)c3ccccc3c2=O)[C@H]2CCCN(c3ccc(F)nc3)C2)ccn1 [Example 16, 3-({[(3S)-1-(6-fluoropyridin-3-yl)piperidin-3-yl][(2-methylpyridin-4-yl)methyl]amino}methyl)-1-methyl-1,4-dihydroquinolin-4-one]
≤ 1	≤ 1	++ (ΔTm>10° C.)	Cc1cc(CN(Cc2cn(C)c3cc(N4CCN(C)CC4)ccc3c2=O)[C@H]2CCCN(c3cccnc3)C2)ccn1 [Example 18, 1-methyl-7-(4-methylpiperazin-1-yl)-3-({[(2-methylpyridin-4-yl)methyl][(3S)-1-(pyridin-3-yl)piperidin-3-yl]amino}methyl)-1,4-dihydroquinolin-4-one]
≥ 10	≥ 10	+ (ΔTm<10° C.)	COc1cc(N2CCC[C@H](N(Cc3ccnc(C)c3)Cc3cn(C)c4ccccc4c3=O)C2)ccn1 [Example 20, 3-({[(3S)-1-(2-methoxypyridin-4-yl)piperidin-3-yl][(2-methylpyridin-4-yl)methyl]amino}methyl)-1-methyl-1,4-dihydroquinolin-4-one]
≥ 10	≥ 10	+ (ΔTm<10° C.)	CCc1cc(CN(Cc2cn(C)c3ccccc3c2=O)C2CCCN(c3cccnc3)C2)ccn1 (stereo not drawn) [Example 21, 3-({[(2-ethylpyridin-4-yl)methyl][1-(pyridin-3-yl)piperidin-3-yl]amino}methyl)-1-methyl-1,4-dihydroquinolin-4-one]
≥ 10	≥ 10	++ (ΔTm>10° C.)	Cc1cc(CN(Cc2cn(C)c3ccccc3c2=O)[C@H]2CCCN(c3cc(=O)[nH]cn3)C2)ccn1 [Example 22, 1-methyl-3-({[(2-methylpyridin-4-yl)methyl][(3S)-1-(6-oxo-1,6-dihydropyrimidin-4-yl)piperidin-3-yl]amino}methyl)-1,4-dihydroquinolin-4-one]
≤ 1	≤ 1	++ (ΔTm>10° C.)	Cc1cc(CN(Cc2cn(C)c3cc(Br)ccc3c2=O)[C@H]2CCCN(c3cccnc3)C2)ccn1 [Example 23, 7-bromo-1-methyl-3-({[(2-methylpyridin-4-yl)methyl][(3S)-1-(pyridin-3-yl)piperidin-3-yl]amino}methyl)-1,4-dihydroquinolin-4-one]
≥ 10	≥ 10	+ (ΔTm<10° C.)	Cc1cc(CN(Cc2cn(C)c3ccccc3c2=O)[C@@H]2CN(c3cccnc3)CC[C@H]2O)ccn1 [Example 24, 3-({[(3R,4R)-4-hydroxy-1-(pyridin-3-yl)piperidin-3-yl][(2-methylpyridin-4-yl)methyl]amino}methyl)-1-methyl-1,4-dihydroquinolin-4-one]
≤ 1	≤ 1	++ (ΔTm>10° C.)	Cc1cc(CN(Cc2cn(C)c3cc(Cl)c(F)cc3c2=O)[C@H]2CCCN(c3cccnc3)C2)ccn1 [Example 25, 7-chloro-6-fluoro-1-methyl-3-({[(2-methylpyridin-4-yl)methyl][(3S)-1-(pyridin-3-yl)piperidin-3-yl]amino}methyl)-1,4-dihydroquinolin-4-one]
≤ 1	≤ 1	++ (ΔTm>10° C.)	Cc1cc(CN(Cc2cn(C)c3ccccc3c2=O)[C@H]2C[C@H](F)CN(c3cccnc3)C2)ccn1 [Example 26, 3-({[(3S,5S)-5-fluoro-1-(pyridin-3-yl)piperidin-3-yl][(2-methylpyridin-4-yl)methyl]amino}methyl)-1-methyl-1,4-dihydroquinolin-4-one]
≥ 10	≥ 10	+ (ΔTm<10° C.)	Cc1cc(CN(Cc2cn(C)c3ccccc3c2=O)[C@H]2C[C@@H](C)CN(c3cccnc3)C2)ccn1 [Example 27, 1-methyl-3-({[(3S,5R)-5-methyl-1-(pyridin-3-yl)piperidin-3-yl][(2-methylpyridin-4-yl)methyl]amino}methyl)-1,4-dihydroquinolin-4-one]
≤ 1	≤ 1	++ (ΔTm>10° C.)	COc1cc(CN(Cc2cn(C3CC3)c3cc(Cl)c(F)cc3c2=O)[C@H]2CCCN(c3cccnc3)C2)ccn1 [Example 28, 7-chloro-1-cyclopropyl-6-fluoro-3-({[(2-methoxypyridin-4-yl)methyl][(3S)-1-(pyridin-3-yl)piperidin-3-yl]amino}methyl)-1,4-dihydroquinolin-4-one]
≤ 1	≤ 1	++ (ΔTm>10° C.)	COC(=O)C1CCN(c2ccc3c(=O)c(CN(Cc4ccnc(C)c4)[C@H]4CCCN(c5cccnc5)C4)cn(C)c3c2)CC1 [Example 29, Methyl 1-[1-methyl-3-({[(2-methylpyridin-4-yl)methyl][(3S)-1-(pyridin-3-yl)piperidin-3-yl]amino}methyl)-4-oxo-1,4-dihydroquinolin-7-yl]piperidine-4-carboxylate]
≥ 10	≥ 10	+ (ΔTm<10° C.)	Cc1cc(CN(Cc2cn(C)c3ccccc3c2=O)[C@H]2CCCN(c3cc[nH]c(=O)c3)C2)ccn1 [Example 30, 1-methyl-3-({[(2-methylpyridin-4-yl)methyl][(3S)-1-(2-oxo-1,2-dihydropyridin-4-yl)piperidin-3-yl]amino}methyl)-1,4-dihydroquinolin-4-one]
≤ 1	≤ 1	++ (ΔTm>10° C.)	COc1cc(CN(Cc2cn(C3CC3)c3cc(F)c(F)cc3c2=O)[C@H]2CCCN(c3ccc(C)nc3)C2)ccn1 [Example 31, 1-cyclopropyl-6,7-difluoro-3-({[(2-methoxypyridin-4-yl)methyl][(3S)-1-(6-methylpyridin-3-yl)piperidin-3-yl]amino}methyl)-1,4-dihydroquinolin-4-one]
1 to 10	1 to 10	+ (ΔTm<10° C.)	Cc1cc(CN(Cc2cn(C)c3ccccc3c2=O)[C@H]2CCCN(c3ncc(Br)cn3)C2)ccn1 [Example 32, 3-({[(3S)-1-(5-bromopyrimidin-2-yl)piperidin-3-yl][(2-methylpyridin-4-yl)methyl]amino}methyl)-1-methyl-1,4-dihydroquinolin-4-one]
≥ 10	≥ 10	+ (ΔTm<10° C.)	Cc1cc(CN(Cc2cn(C)c3ccccc3c2=O)C2CN(c3cccnc3)CC(F)(F)C2)ccn1 (stereo not drawn) [Example 34, 3-({[5,5-difluoro-1-(pyridin-3-yl)piperidin-3-yl][(2-methylpyridin-4-yl)methyl]amino}methyl)-1-methyl-1,4-dihydroquinolin-4-one]
1 to 10	≤ 1	++ (ΔTm>10° C.)	Cc1cc(CN(Cc2c[nH]c3ccccc3c2=O)[C@H]2CCCN(c3cccnc3)C2)ccn1 [Example 35, 3-({[(2-methylpyridin-4-yl)methyl][(3S)-1-(pyridin-3-yl)piperidin-3-yl]amino}methyl)-1,4-dihydroquinolin-4-one]
≥ 10	≥ 10	+ (ΔTm<10° C.)	Cc1cc(CN(Cc2cn(C)c3ccccc3c2=O)[C@H]2CCCN(c3cccnc3[N+](=O)[O-])C2)ccn1 [Example 36, 1-methyl-3-({[(2-methylpyridin-4-yl)methyl][(3S)-1-(2-nitropyridin-3-yl)piperidin-3-yl]amino}methyl)-1,4-dihydroquinolin-4-one]
≤ 1	≤ 1	++ (ΔTm>10° C.)	Cc1ccc(N2CCC[C@H](N(Cc3ccnc(C)c3)Cc3cn(C)c4cc(Br)ccc4c3=O)C2)cn1 [Example 37, 7-bromo-1-methyl-3-({[(3S)-1-(6-methylpyridin-3-yl)piperidin-3-yl][(2-methylpyridin-4-yl)methyl]amino}methyl)-1,4-dihydroquinolin-4-one]
